Reference: publication PMC12040169 (PLOS Biology, 2025)

experiment: in vitro; conditions: human, hela cells, % viability

Row | Structure (SMILES) | viability at 28.5 h, 10 µM
1 | Cc1ccc(SCCNC(=O)COc2ccc(Cl)cc2Cl)cc1 [CBK263976] | 86.6%
2 | Cc1cc(CN(C)Cc2ccc3c(c2)n(C)c(=O)n3C)n[nH]1 [CBK281705] | 101%
3 | Cc1ccc(/C=N/N=C2/N=C(O)C(CC(=O)Nc3ccccc3C(F)(F)F)S2)o1 (centres unmarked) [CBK263731] | 104%
4 | O=[N+]([O-])c1ccc2c(c1)C=C1CCCCC1(NCc1ccccc1)O2 (centres unmarked) [CBK262716] | 98.8%
5 | CN1N=C(c2ccc(N3CCOCC3)c(F)c2)CC1c1cnn(C)c1 (centres unmarked) [CBK305726] | 87.6%
6 | O=C(O)c1sc2c(ccc3ccccc32)c1Br [CBK018387] | 90.4%
7 | Cc1cc(CNC(=O)N2CCN(CCc3ccccc3)CC2)no1 [CBK158898] | 92.7%
8 | O=C(c1cccs1)N1CCC(c2nnc3n2CCCCC3)CC1 [CBK284626] | 95.7%
9 | CCN1CCN(c2ccc(NC(=O)c3ccc(OCc4ccccc4)cc3)cc2Cl)CC1 [CBK266683] | 78%
10 | CC1(C)CC(=O)C=C(C(=O)NCc2ccc3c(c2)OCO3)O1 [CBK153290] | 98.3%
11 | CS(=O)(=O)N(CC(=O)Nc1ccccc1C(=O)N1CCCC1)c1cc(Cl)c(Cl)cc1Cl [CBK268826] | 106%
12 | Nc1ncc(-c2ccsc2)nc1NCC1CCOCC1 [CBK063848] | 102%
13 | Cc1nc2c(OCC(=O)c3ccc(Cl)cc3Cl)cccn2c1N(C)CC1CC1 [CBK147294] | 105%
14 | Cc1csc(C(Cc2ccsc2)NC(=O)c2scnc2C)n1 (centres unmarked) [CBK285098] | 106%
15 | CCC(CC)C(=O)N1CCC(c2nnc3n2CCCCC3)CC1 [CBK284614] | 86.6%
16 | COc1ccc(OC)c(C2CC(c3ccc(NS(C)(=O)=O)cc3)=NN2C(=O)CCC(=O)O)c1 (centres unmarked) [CBK297781] | 107%
17 | NS(=O)(=O)c1ccc(NC(=O)CSc2nc3sc4c(c3c(=O)n2-c2ccc(Cl)cc2)CCCC4)cc1 [CBK267577] | 91.9%
18 | COc1cccc2c1ncc1c(=O)nc(N)sc12 [CBK291241] | 88.9%
19 | O=C1CC2(CCN(C(=O)C3CCCC3)CC2)Oc2ccccc21 [CBK283485] | 94.9%
20 | Cc1n[nH]c(C)c1CC(=O)NC(Cc1ccsc1)c1ccccn1 (centres unmarked) [CBK285271] | 105%
21 | COc1ccc(C)cc1C1(CNC(=O)N2CCC(C)(O)C2)CCOCC1 (centres unmarked) [CBK305452] | 102%
22 | CCNC(=O)NC[C@@H]1C=C(C)[C@H](CC(=O)N2CCOCC2)C[C@H]1C(C)C [CBK289051] | 102%

Row | Structure (SMILES) | viability at 28.5 h, 10 µM
23 | O=S(=O)(Nc1nnn[nH]1)c1cccc(C(F)(F)F)c1 [CBK062377] | 108%
24 | COc1cc(CNCc2cccs2)ccc1OCC(N)=O [CBK267620C] | 95.7%
25 | Cc1ccccc1C(=O)Nc1cccc(-c2nnc(SCC(=O)c3ccc(Cl)cc3)n2C)c1 [CBK264053] | 89.3%
26 | CC(C)N(C(=O)N1CCC(c2cccnc2)CC1)C(C)C [CBK283850] | 97.6%
27 | Cc1cc(N2C[C@H](CO)OC2=O)ccc1C#N [CBK017978] | 116%
28 | Cc1ccc(S(=O)(=O)NC(Cc2c[nH]c3ccccc23)C(=O)O)cc1 (centres unmarked) [CBK260966] | 103%
29 | COc1ccccc1N(CC(=O)NC(C(C)C)C(C)C)S(=O)(=O)c1ccccc1 [CBK101384] | 91.4%
30 | CS(=O)(=O)CCC(C(=O)O)N1C(=O)c2ccc(C(=O)O)cc2C1=O (centres unmarked) [CBK265719] | 94.5%
31 | O=C(NC1CC1)[C@@H]1C=CCN1C(=O)Nc1ccccc1C(F)(F)F [CBK284276] | 98.1%
32 | COc1nc2ccn(CCNC(=O)C(C)C)c(=O)c2cc1C#N [CBK307015] | 95.8%
33 | c1ccc(CN2CCC[C@H]2c2nc(-c3ccc(-c4cncnc4)nc3)no2)cc1 [CBK288891] | 87.5%
34 | O=C(c1cccc(C(F)(F)F)c1)N1CCCC2(CCN(Cc3ccccc3)C2)C1 (centres unmarked) [CBK137039] | 90.4%
35 | CC(C)C[C@H]1NC(=O)C2(C/C=C/C[C@@H]3COCC[C@@H]3NC1=O)CCN(C(=O)[C@@H](N)Cc1c[nH]c3ccccc13)CC2 [CBK292200] | 109%
36 | O=C(O)C1C2C=CC(C2)C1C(=O)N1CCc2ccccc21 (centres unmarked) [CBK286537] | 85.2%
37 | O=S(=O)(Nc1ccc(Cc2ccncc2)cc1)N1CCCC1 [CBK268263] | 112%
38 | Cc1cc(NC(=O)c2ccc(S(=O)(=O)N(C)C)cc2)nc2c1c(=O)oc1ccccc12 [CBK291135] | 104%
39 | NCCCNC(=O)c1ccc(-c2cccc(C(F)(F)F)c2)o1 [CBK107454] | 89.4%
40 | CC1CCCN(Cc2nc3c(c(=O)n(C)c(=O)n3C)n2CC(N)=O)C1 (centres unmarked) [CBK306064] | 82.3%
41 | CCOC(=O)N1CCN(C(=O)C2CC=CCC2C(=O)O)CC1 (centres unmarked) [CBK266142] | 104%
42 | N=C(N)SCc1ccc(CSC(=N)N)cc1 [CBK278309C] | 84.5%
43 | NC1=C(c2nc3ccccc3s2)C(=O)CN1CCCN1CCOCC1 [CBK265925] | 109%
44 | CSc1nc(NC(=O)c2ccccc2)cc(N2CCNCC2)n1 [CBK050266T] | 93.6%

Row | Structure (SMILES) | viability at 28.5 h, 10 µM
45 | COc1ccc(C(NC(=O)Cc2ccc(-n3nnnc3C)cc2)c2ccccc2)cc1 (centres unmarked) [CBK285537] | 92.8%
46 | CCN(CC)C(=O)c1[nH]c2ccccc2c1NS(=O)(=O)c1c(C)noc1C [CBK050117] | 89.1%
47 | COc1cc(OC)nc(CN2CCOC3(CCN(C(=O)OCc4ccccc4)CC3)C2)n1 [CBK161101T] | 96.2%
48 | O=C(c1ccc(CCN2CCCC2)nc1)N1CCN(CCc2ccccc2)CC1 [CBK200227] | 91.6%
49 | O=c1cc(CN2CCCc3ccccc32)[nH]c(=O)[nH]1 [CBK138331] | 95.1%
50 | O=C(Nc1nnc(-c2ccccc2)o1)c1ccc2ncsc2c1 [CBK287598] | 94.4%
51 | COc1ccc(/C=C(\NC(C)=O)C(=O)N2CCNCC2)cc1 [CBK077408] | 90.5%
52 | COCCCNC(=O)C1CCCN(c2nc3c(-c4ccc(C)cc4)csc3c(=O)[nH]2)C1 (centres unmarked) [CBK215548] | 83.1%
53 | CC(C)[C@@]1(C)SC(N[C@H]2C[C@H]3C[C@@H]2C[C@@H]3O)=NC1=O [CBK138400] | 102%
54 | CC(C)=NNC(=O)Nc1nonc1N [CBK027368] | 99.2%
55 | O=C(NC[C@H]1C[C@@H]2CC[N@]1C[C@@H]2CN1CCN(c2ccccn2)CC1)Nc1ccccc1 [CBK289114] | 106%
56 | COc1ccc(-c2cn(-c3cccc(NC(C)=O)c3)nn2)cc1 [CBK113008] | 97.2%
57 | COc1ccc(Nc2cc(-c3cc(OC)c(OC)c(OC)c3)ncn2)c(OC)c1 [CBK090759] | 95.4%
58 | O=C(NC1CC1)[C@H]1CN(Cc2ccccc2)C[C@@H]1C(=O)c1ccccc1 [CBK285264] | 105%
59 | COc1ccccc1N1CCN(CC(=O)NC2CC3CCC2C3)CC1 (centres unmarked) [CBK269162] | 94.8%
60 | Cc1cc2n(n1)[C@@H](C(F)F)C[C@@H](C1CCN(C(=O)C(C)C)CC1)N2 [CBK284725] | 88%
61 | Fc1ccc(Br)cc1SCCc1ccccn1 [CBK262330G] | 86.7%
62 | FC(F)(F)c1ccc2c(c1)nc(S)n2C1CC1 [CBK288483] | 86.2%
63 | COc1ccc(C(CC(=O)c2ccc(C)cc2)Nc2ccc([N+](=O)[O-])cc2)cc1 (centres unmarked) [CBK268187] | 92.2%
64 | Cc1ccc(C(=O)C(OC(=O)c2cc(O)nc3ccccc23)c2ccccc2)cc1C (centres unmarked) [CBK265515] | 90.9%
65 | Cc1ccnc2nc(C(=O)OC(C)C(=O)c3ccc4c(c3)CCC4)nn12 (centres unmarked) [CBK304528] | 89.5%
66 | O=C(O)CCC(=O)NCC(=O)c1ccc(F)cc1 [CBK057384] | 76.6%

Row | Structure (SMILES) | viability at 28.5 h, 10 µM
67 | COc1ccc(C(=O)NC(=S)Nc2ccc(O)c(-c3nc4cc(C)c(C)cc4o3)c2)cc1[N+](=O)[O-] [CBK264039] | 111%
68 | Cc1ccc(-c2csc(NC(=O)c3ccccc3C(=O)O)n2)cc1 [CBK072083] | 91.9%
69 | CC(=O)c1ccc(NC(=O)O[C@@H]2CO[C@H]3[C@@H]2OC[C@@H]3NC(=O)C2CCC2)cc1 [CBK289475] | 89.3%
70 | Cc1ccc(C(=O)N2CN(C(=O)CN3CCOCC3)CC(C)(C)C2)cc1 [CBK039190] | 105%
71 | CC(=O)c1nnn(-c2ccc(Cl)cc2Cl)c1C [CBK085972] | 86.7%
72 | O=C1CC2(CCN(S(=O)(=O)c3ccc(F)cc3)CC2)CN1 [CBK283353] | 93.9%
73 | Cc1noc(C)c1C(=O)Nc1sc2c(c1C(=O)NCc1ccco1)CCCCCC2 [CBK268112] | 99.3%
74 | CC1CCn2c3c(c4cccc1c42)CCNCC3 (centres unmarked) [CBK018012C] | 97.4%
75 | C1CN(c2nc(N3CCOCC3)nc(N3CCOCC3)n2)CCN1 [CBK261380] | 84.9%
76 | COc1ccc(-c2ccccc2)cc1NCc1cc2cc(OC)c(OC)cc2[nH]c1=O [CBK286160] | 99.5%
77 | Cc1nc(C(F)(F)F)ccc1C(=O)Nc1nc(CC(N)=O)cs1 [CBK305776] | 100%
78 | N=C1NC(=O)C(CC(=O)Nc2cccc([N+](=O)[O-])c2)S1 (centres unmarked) [CBK263944] | 87.9%
79 | COc1cccc(OCCN2CCC3(C2)NCCc2c3[nH]c3cc(OC)ccc23)c1 (centres unmarked) [CBK061794] | 94.3%
80 | O=c1oc(-c2cccc(F)c2)nc2cc(Cc3ccc4c(=O)oc(-c5cccc(F)c5)nc4c3)ccc12 [CBK262775] | 121%
81 | Nc1ncc(-c2ccc(C(=O)N3CCOCC3)cc2)cc1C(=O)Nc1ccc(C(F)(F)F)cc1 [CBK160204] | 90.6%
82 | Cc1ccc2cc(CN(Cc3ccco3)S(C)(=O)=O)c(O)nc2c1 [CBK269409] | 105%
83 | Cc1cccc2sc(NC(=O)C3COc4ccccc4O3)nc12 (centres unmarked) [CBK287367] | 113%
84 | O=C(Nc1cccc(Cl)c1)c1cccc(NC(=O)c2ccccc2C(=O)O)c1 [CBK287122] | 81.8%
85 | COc1ccc(Nc2ncc(C(=O)NCCCN3CCCC3)c3ccccc23)cc1 [CBK291114] | 106%

same assay, conditions: human, hela cells, % viability, bulk resorufin, single well

Row | Structure (SMILES) | viability at 28.5 h, 10 µM
86 | CCOC(=O)C1(c2ccccc2)CCN(C(=O)Cc2ccsc2)CC1 [CBK132172] | 93%
